Measured values from US8765730B2 (Hoffmann-La Roche Inc, priority 2010, dated 2014).
pEC50: −log10 of the molar value. Counter-ions that a name gives are not always drawn.

What was measured:
human GPBAR1 receptor = target: T1, human GPBAR1 receptor (Homo sapiens, UniProt Q8TDU6); test: functional cAMP assay in CHO-dhfr(minus) cells expressing human GPBAR1 receptors; type: cell-based; details: human EC50, functional cAMP assay, 30 min at 30° C.
T1 construct: expressed in transfected cells
T1 sequence (Q8TDU6 1-330): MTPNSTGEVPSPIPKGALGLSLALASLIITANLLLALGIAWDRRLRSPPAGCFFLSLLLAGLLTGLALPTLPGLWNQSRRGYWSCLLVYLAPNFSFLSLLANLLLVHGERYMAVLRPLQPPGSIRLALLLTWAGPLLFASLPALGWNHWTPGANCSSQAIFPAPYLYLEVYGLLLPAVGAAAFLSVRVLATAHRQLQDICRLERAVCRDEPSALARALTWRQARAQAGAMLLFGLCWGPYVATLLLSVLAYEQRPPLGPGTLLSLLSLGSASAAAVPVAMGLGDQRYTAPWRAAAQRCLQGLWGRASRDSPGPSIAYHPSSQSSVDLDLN
Procedure, shortened: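 Agonist cAMP read-out: stable GPBAR1 CHO-dhfr− clone, 30 min compound exposure at 30° C following 30 min IBMX (1 mM) preincubation in Krebs Ringer bicarbonate. Time-resolved energy-transfer detection gives EC50; parental CHO cells serve as counter-screen.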

[1] = IV infusion (0.8 μmol/kg/min) for 90 min, obese and normal human subjects, over 24 hours; cited from earlier work

Compound | pEC50 (human GPBAR1 receptor) | reduced food intake [1] [%]
Cc1ccccc1[C@H](C/C(=N\O)c1ccc(=O)n(C)c1)c1ccc(N2CCC(C(=O)O)CC2)cc1 [Example 497, Sodium (R,E)-1-(4-(3-(Hydroxyimino)-3-(1-methyl-6-oxo-1,6-dihydropyridin-3-yl)-1-o-tolylpropyl)phenyl)piperidine-4-carboxylate] | 7.39 | –
Cc1ccccc1[C@H](C/C(=N\O)c1ccc(=O)n(C)c1)c1ccc(C#N)cc1 [Example 498, (R,E)-4-(3-(Hydroxyimino)-3-(1-methyl-6-oxo-1,6-dihydropyridin-3-yl)-1-o-tolylpropyl)benzonitrile] | 8.15 | –
Cc1ccccc1[C@H](C/C(=N/O)c1ccc(=O)n(C)c1)c1ccc(C#N)cc1 [Example 499, (R,Z)-4-(3-(hydroxyimino)-3-(1-methyl-6-oxo-1,6-dihydropyridin-3-yl)-1-o-tolylpropyl)benzonitrile] | 5.35 | –
Cc1ccccc1[C@H](C/C(=N\O)c1ccc(=O)n(C)c1)c1ccc(-c2nnn[nH]2)cc1 [Example 500, (R,E)-5-(3-(4-(1H-Tetrazol-5-yl)phenyl)-1-(hydroxyimino)-3-o-tolylpropyl)-1-methyl-pyridin-2(1H)-one, sodium salt] | 6.57 | –
Cc1ccccc1[C@@H](C/C(=N\O)c1cnc(=O)n(C)c1)c1ccc(Br)cc1 [Example 501, (S,E)-5-(3-(4-Bromophenyl)-1-(hydroxyimino)-3-o-tolylpropyl)-1-methylpyrimidin-2(1H)-one] | 6.65 | –
Cc1ccccc1[C@@H](C/C(=N\O)c1cnc(=O)n(C)c1)c1ccc(S(C)(=O)=O)cc1 [Example 502, (S,E)-5-(1-(Hydroxyimino)-3-(4-(methylsulfonyl)phenyl)-3-o-tolylpropyl)-1-methyl-pyrimidin-2(1H)-one] | 6.32 | –
Cc1cc(/C(C[C@H](c2ccc(C3CCC(C(=O)O)CC3)cc2)c2ccc(Cl)cc2C)=N/O)ccn1 (stereo partly drawn) [Example 503, (R,E)-4-(4-(1-(4-Chloro-2-methylphenyl)-3-(hydroxyimino)-3-(2-methylpyridin-4-yl)propyl)phenyl)cyclohexanecarboxylic acid] | 7.60 | –
Cc1cc(/C(C[C@H](c2ccc([C@H]3CC[C@H](C(=O)O)CC3)cc2)c2ccc(Cl)cc2C)=N/O)ccn1 [Example 504, Trans-4-(4-((R,E)-1-(4-Chloro-2-methylphenyl)-3-(hydroxyimino)-3-(2-methylpyridin-4-yl)propyl)phenyl)cyclohexanecarboxylic acid] | 7.55 | –
Cc1cc(/C(C[C@H](c2ccc([C@H]3CC[C@@H](C(=O)O)CC3)cc2)c2ccc(Cl)cc2C)=N/O)ccn1 [Example 505, cis-4-(4-((R,E)-1-(4-chloro-2-methylphenyl)-3-(hydroxyimino)-3-(2-methylpyridin-4-yl)propyl)phenyl)cyclohexanecarboxylic acid] | 7.89 | –
Cc1ccccc1[C@H](C/C(=N\O)c1ccc(=O)n(C)c1)c1ccc(C2CCN(C(=O)OC(C)(C)C)CC2)cc1 [Example 506, (R,E)-tert-Butyl 4-(4-(3-(hydroxyimino)-3-(1-methyl-6-oxo-1,6-dihydropyridin-3-yl)-1-o-tolylpropyl)phenyl)piperidine-1-carboxylate] | 6.20 | –
Cc1ccccc1[C@H](C/C(=N\O)c1ccc(=O)n(C)c1)c1ccc(C2CCNCC2)cc1 [Example 507, (R,E)-5-(1-(Hydroxyimino)-3-(4-(piperidin-4-yl)phenyl)-3-o-tolylpropyl)-1-methylpyridin-2(1H)-one] | 5.63 | –
CC(=O)N1CCC(c2ccc([C@@H](C/C(=N\O)c3ccc(=O)n(C)c3)c3ccccc3C)cc2)CC1 [Example 508, (R,E)-5-(3-(4-(1-Acetylpiperidin-4-yl)phenyl)-1-(hydroxyimino)-3-o-tolylpropyl)-1-methylpyridin-2(1H)-one] | 6.39 | –
Cc1ccccc1[C@H](C/C(=N\O)c1ccc(=O)n(C)c1)c1ccc(C2CCN(S(C)(=O)=O)CC2)cc1 [Example 509, (R,E)-5-(1-(Hydroxyimino)-3-(4-(1-(methylsulfonyl)piperidin-4-yl)phenyl)-3-o-tolylpropyl)-1-methylpyridin-2(1H)-one] | 7.00 | –
Cc1ccccc1[C@H](C/C(=N\O)c1ccc(=O)n(C)c1)c1ccc(C2CCN(S(N)(=O)=O)CC2)cc1 [Example 510, (R,E)-4-(4-(3-(Hydroxyimino)-3-(1-methyl-6-oxo-1,6-dihydropyridin-3-yl)-1-o-tolylpropyl)phenyl)piperidine-1-sulfonamide] | 7.32 | –
CC(=O)N1CCC(c2ccc([C@@H](C/C(=N\O)c3ccnc(C)c3)c3ccc(Cl)cc3C)cc2)CC1 [Example 511, (R,E)-1-(4-(4-(1-(4-Chloro-2-methylphenyl)-3-(hydroxyimino)-3-(2-methylpyridin-4-yl)propyl)phenyl)piperidin-1-yl)ethanone] | 7.44 | –
PYY3-36 | – | 33
